Laboratory results as given in article PMC9025560, “A Comparison of Evans Blue and 4-(p-Iodophenyl)butyryl Albumin Binding Moieties on an Integrin αvβ6 Binding Peptide” (Pharmaceutics, 2022).
Where two headings read alike, the source gives them in different places.

How the values were obtained:
[1] = Stability in human serum at 37 °C; type: in vitro ADME; conditions: read-out: Stability in human serum, % intact
Description: For serum stability, mouse serum or human serum (0.5 mL, both purchased from Sigma-Aldrich) was combined with an aliquot of each of the peptides [^64Cu]1 and [^64Cu]2 (≤25 μL, 14.8–22.2 MBq) and incubated at 37 °C. At each time point (1, 4, and 24 h) an aliquot (50–200 μL) was taken, proteins precipitated with ethanol, and removed by pelleting at 1500 (RCF) for 4 min. The ethanol solution was diluted with water (1 mL) and analyzed by RP-HPLC as previously described.

[2] = Biodistribution in mice bearing BxPC-3 xenograft tumors; type: in vivo; conditions: female, athymic nu/nu-nude, mouse, in vivo, total radioactivity; for tissue uptake at 4 h: 4 h p.i.; for tissue uptake at 24 h: 24 h p.i.; for tissue uptake at 48 h: 48 h p.i.
Description: All animal procedures conformed to the Animal Welfare Act and were approved by the University of California, Davis Institutional Animal Care and Use Committee. Female athymic nu/nu-nude mice (6–8 weeks old) were purchased from Charles River Laboratories (Wilmington, MA, USA) and provided food and water on an ad libitum basis. BxPC-3 xenografts were implanted according to previous methods. Briefly, BxPC-3 cells were evaluated by flow cytometry to confirm integrin αvβ6 expression levels, injected subcutaneously into the left flank [5 million in 100 μL of a 1:1 mixture of serum-free RPMI and GFR Matrigel (Corning, New York, NY, USA)], and allowed to grow for approximately 3 weeks until tumors reached a diameter of 0.5–1 cm.
For biodistribution studies the [^64Cu]1–4 (3.7–5.55 MBq) in PBS (100 μL, pH 7.2) was injected intravenously (i.v.) via catheter into the tail vein. Following a conscious uptake period, the mice were anesthetized (5% isoflurane), euthanized, and dissected ([^64Cu]1 and [^64Cu]2, n = 3/radiolabeled peptide/time point; 4, 24, and 48 h p.i.; the 72 h time point was obtained from the imaging animals after the 72 h PET/CT scans; compounds [^64Cu]3 and [^64Cu]4, n = 2/radiolabeled compound at 4 h p.i.). Tissues were rapidly collected, weighed, and radioactivity measured with a γ-counter. Decay-corrected radioactivity concentrations are expressed as the percentage of injected dose per gram of tissue (% ID/g). Data are reported as mean ± standard deviation (SD) (Figure S20, S21 and S25).

[3] = Blocking biodistribution with pre-administered metal free peptide; type: in vivo, mice; conditions: female, athymic nu/nu-nude, mouse, intravenous, total radioactivity, 4 h p.i., metal free peptide 10 min before, n = 1
Description: For blocking studies, the metal free peptides 1 or 2 (~220 nmol, 1.3 mg in 100 μL PBS), respectively, were injected i.v. (n = 1/peptide) as described above 10 min prior to the injection of matching radiolabeled [^64Cu]1 or [^64Cu]2 (3.7–5.55 MBq, 100 μL PBS). After a conscious 4 h uptake period, the animals were anesthetized, sacrificed, tissues rapidly collected, and analyzed as described above. Decay-corrected radioactivity concentrations are expressed as a percentage of injected dose per gram of tissue (% ID/g) (Figure S23).

[4] = iv, i.v., read-out: Blood uptake
[5] = iv, i.v., read-out: Bone uptake
[6] = iv, i.v., read-out: Brain uptake
[7] = iv, i.v., read-out: BxPC-3 Tumor uptake
[8] = iv, i.v., read-out: Fecal Matter radioactivity
[9] = iv, i.v., read-out: Gall Bladder uptake
[10] = iv, i.v., read-out: Heart uptake
[11] = iv, i.v., read-out: Kidneys uptake
[12] = iv, i.v., read-out: Lg. Intestines uptake
[13] = iv, i.v., read-out: Liver uptake
[14] = iv, i.v., read-out: Lung uptake
[15] = iv, i.v., read-out: Muscle uptake
[16] = iv, i.v., read-out: Pancreas uptake
[17] = iv, i.v., read-out: Skin uptake
[18] = iv, i.v., read-out: Sm. Intestines uptake
[19] = iv, i.v., read-out: Spleen uptake
[20] = iv, i.v., read-out: Stomach uptake
[21] = iv, i.v., read-out: Urine radioactivity

CC(C)C[C@H](NC(=O)[C@H](CC(=O)O)NC(=O)CNC(=O)[C@H](CCCNC(=N)N)NC(=O)[C@H](CC(C)C)NC(=O)[C@H](CC(N)=O)NC(=O)[C@@H]1CCCN1C(=O)[C@@H](NC(=O)[C@H](C)NC(=O)[C@H](CC(N)=O)NC(=O)CCOCCOCCOCCOCCOCCOCCOCCOCCOCCOCCOCCOCCOCCOCCOCCOCCOCCOCCOCCOCCOCCOCCOCCOCCOCCOCCOCCOCCNC(=O)[C@H](CCCCNC(=O)[C@H](CC(=O)O)NC(=O)CCCNC(=O)CCCc1ccc(I)cc1)NC(=O)CN1CCN(CC(=O)O)CCN(CC(=O)O)CCN(CC(=O)O)CC1)C(C)C)C(=O)N[C@@H](CCC(N)=O)C(=O)N[C@H](C(=O)N[C@@H](CC(C)C)C(=O)N[C@@H](C)C(=O)N[C@@H](CCC(N)=O)C(=O)N[C@@H](CCCNC(=N)N)C(=O)N[C@H](C(=O)N[C@@H](C)C(=O)N[C@@H](CCCNC(=N)N)C(=O)N[C@H](C(=O)NCCOCCOCCOCCOCCOCCOCCOCCOCCOCCOCCOCCOCCOCCOCCOCCOCCOCCOCCOCCOCCOCCOCCOCCOCCOCCOCCOCCOCCC(N)=O)[C@@H](C)O)C(C)C)C(C)C [[^64Cu]2, [^64Cu]Cu DOTA-IP-αvβ6-BP, metal not drawn]
remaining at 1 h ([1]; 1 h): 99% | remaining at 4 h ([1]; 4 h): 93% | remaining at 24 h ([1]; 24 h): 90% | tissue uptake at 4 h [2, 4]: 1.21 ± 0.16 %ID/g | tissue uptake at 4 h [2, 5]: 0.59 ± 0.15 %ID/g | tissue uptake at 4 h [2, 6]: 0.12 ± 0.002 %ID/g | tissue uptake at 4 h [2, 7]: 7.6 ± 0.43 %ID/g | tissue uptake at 4 h [2, 8]: 9.32 ± 1.08 %ID/g | tissue uptake at 4 h [2, 9]: 4.33 ± 2.64 %ID/g | tissue uptake at 4 h [2, 10]: 2.22 ± 0.11 %ID/g | tissue uptake at 4 h [2, 11]: 33.6 ± 5.39 %ID/g | tissue uptake at 4 h [2, 12]: 9.83 ± 0.69 %ID/g | tissue uptake at 4 h [2, 13]: 1.58 ± 0.26 %ID/g | tissue uptake at 4 h [2, 14]: 2.25 ± 0.39 %ID/g | tissue uptake at 4 h [2, 15]: 0.99 ± 0.3 %ID/g | tissue uptake at 4 h [2, 16]: 1.04 ± 0.09 %ID/g | tissue uptake at 4 h [2, 17]: 2.72 ± 0.31 %ID/g | tissue uptake at 4 h [2, 18]: 9.55 ± 1.21 %ID/g | tissue uptake at 4 h [2, 19]: 0.41 ± 0.13 %ID/g | tissue uptake at 4 h [2, 20]: 18.1 ± 2.91 %ID/g | tissue uptake at 4 h [2, 21]: 25.1 ± 6.79 %ID/g | tissue uptake at 24 h [2, 4]: 0.2 ± 0.04 %ID/g | tissue uptake at 24 h [2, 5]: 0.28 ± 0.21 %ID/g | tissue uptake at 24 h [2, 6]: 0.08 ± 0.01 %ID/g | tissue uptake at 24 h [2, 7]: 4.41 ± 1.25 %ID/g | tissue uptake at 24 h [2, 8]: 4.58 ± 1.03 %ID/g | tissue uptake at 24 h [2, 9]: 5.05 ± 3.56 %ID/g | tissue uptake at 24 h [2, 10]: 1.61 ± 0.06 %ID/g | tissue uptake at 24 h [2, 11]: 21.9 ± 1.74 %ID/g | tissue uptake at 24 h [2, 12]: 5.58 ± 0.94 %ID/g | tissue uptake at 24 h [2, 13]: 1.62 ± 0.2 %ID/g | tissue uptake at 24 h [2, 14]: 1.69 ± 0.07 %ID/g | tissue uptake at 24 h [2, 15]: 0.78 ± 0.22 %ID/g | tissue uptake at 24 h [2, 16]: 0.78 ± 0.01 %ID/g | tissue uptake at 24 h [2, 17]: 1.48 ± 0.03 %ID/g | tissue uptake at 24 h [2, 18]: 4.58 ± 0.62 %ID/g | tissue uptake at 24 h [2, 19]: 0.31 ± 0.05 %ID/g | tissue uptake at 24 h [2, 20]: 11.1 ± 1.16 %ID/g | tissue uptake at 24 h [2, 21]: 1.7 ± 1.91 %ID/g | tissue uptake at 48 h [2, 4]: 0.2 ± 0.04 %ID/g | tissue uptake at 48 h [2, 5]: 0.24 ± 0.09 %ID/g | tissue uptake at 48 h [2, 6]: 0.09 ± 0.01 %ID/g | tissue uptake at 48 h [2, 7]: 4.09 ± 1.28 %ID/g | tissue uptake at 48 h [2, 8]: 2.67 ± 0.58 %ID/g | tissue uptake at 48 h [2, 9]: 2.83 ± 0.86 %ID/g | tissue uptake at 48 h [2, 10]: 1.43 ± 0.2 %ID/g | tissue uptake at 48 h [2, 11]: 11.8 ± 1.02 %ID/g | tissue uptake at 48 h [2, 12]: 3.95 ± 0.81 %ID/g | tissue uptake at 48 h [2, 13]: 1.71 ± 0.21 %ID/g | tissue uptake at 48 h [2, 14]: 1.33 ± 0.15 %ID/g | tissue uptake at 48 h [2, 15]: 0.63 ± 0.07 %ID/g | tissue uptake at 48 h [2, 16]: 0.64 ± 0.08 %ID/g | tissue uptake at 48 h [2, 17]: 1.22 ± 0.22 %ID/g | tissue uptake at 48 h [2, 18]: 2.28 ± 0.1 %ID/g | tissue uptake at 48 h [2, 19]: 0.35 ± 0.05 %ID/g | tissue uptake at 48 h [2, 20]: 6.4 ± 1.02 %ID/g | tissue uptake at 48 h [2, 21]: 3.24 ± 1.03 %ID/g | tissue uptake at 72 h ([2]; iv, 72 h p.i., i.v., read-out: Blood uptake): 0.17 ± 0.001 %ID/g | tissue uptake at 72 h ([2]; iv, 72 h p.i., i.v., read-out: Bone uptake): 0.26 ± 0.01 %ID/g | tissue uptake at 72 h ([2]; iv, 72 h p.i., i.v., read-out: Brain uptake): 0.1 ± 0.02 %ID/g | tissue uptake at 72 h ([2]; iv, 72 h p.i., i.v., read-out: BxPC-3 Tumor uptake): 4.91 ± 1.19 %ID/g | tissue uptake at 72 h ([2]; iv, 72 h p.i., i.v., read-out: Fecal Matter radioactivity): 2.29 ± 0.53 %ID/g | tissue uptake at 72 h ([2]; iv, 72 h p.i., i.v., read-out: Gall Bladder uptake): 3.21 ± 1.02 %ID/g | tissue uptake at 72 h ([2]; iv, 72 h p.i., i.v., read-out: Heart uptake): 1.05 ± 0.05 %ID/g | tissue uptake at 72 h ([2]; iv, 72 h p.i., i.v., read-out: Kidneys uptake): 11.5 ± 1.02 %ID/g | tissue uptake at 72 h ([2]; iv, 72 h p.i., i.v., read-out: Lg. Intestines uptake): 3 ± 0.37 %ID/g | tissue uptake at 72 h ([2]; iv, 72 h p.i., i.v., read-out: Liver uptake): 1.3 ± 0.13 %ID/g | tissue uptake at 72 h ([2]; iv, 72 h p.i., i.v., read-out: Lung uptake): 1.16 ± 0.22 %ID/g | tissue uptake at 72 h ([2]; iv, 72 h p.i., i.v., read-out: Muscle uptake): 0.76 ± 0.24 %ID/g | tissue uptake at 72 h ([2]; iv, 72 h p.i., i.v., read-out: Pancreas uptake): 0.57 ± 0.06 %ID/g | tissue uptake at 72 h ([2]; iv, 72 h p.i., i.v., read-out: Skin uptake): 0.92 ± 0.14 %ID/g | tissue uptake at 72 h ([2]; iv, 72 h p.i., i.v., read-out: Sm. Intestines uptake): 1.24 ± 0.11 %ID/g | tissue uptake at 72 h ([2]; iv, 72 h p.i., i.v., read-out: Spleen uptake): 0.38 ± 0.14 %ID/g | tissue uptake at 72 h ([2]; iv, 72 h p.i., i.v., read-out: Stomach uptake): 3.14 ± 0.62 %ID/g | tissue uptake at 72 h ([2]; iv, 72 h p.i., i.v., read-out: Urine radioactivity): 1.46 ± 1.17 %ID/g | tissue uptake at 72 h ([2]; 72 h, read-out: GI uptake): < 3.2 %ID/g | tissue uptake ([2]; throughout 4–72 h, read-out: Liver uptake throughout): < 3 %ID/g | tissue uptake at 4 h ([3]; BxPC-3 tumor, read-out: BxPC-3 Tumor uptake, blocked): 2.89 %ID/g | tissue uptake at 4 h ([3]; blood, read-out: Blood uptake, blocked): 3.98 %ID/g | tissue uptake at 4 h ([3]; bone, read-out: Bone uptake, blocked): 0.5 %ID/g | tissue uptake at 4 h ([3]; brain, read-out: Brain uptake, blocked): 0.09 %ID/g | tissue uptake at 4 h ([3]; gall bladder, read-out: Gall Bladder uptake, blocked): 1.64 %ID/g | tissue uptake at 4 h ([3]; heart, read-out: Heart uptake, blocked): 1.31 %ID/g | tissue uptake at 4 h ([3]; kidneys, read-out: Kidneys uptake, blocked): 16.8 %ID/g | tissue uptake at 4 h ([3]; large intestines, read-out: Lg. Intestines uptake, blocked): 1.26 %ID/g | tissue uptake at 4 h ([3]; liver, read-out: Liver uptake, blocked): 2.04 %ID/g | tissue uptake at 4 h ([3]; lung, read-out: Lung uptake, blocked): 2.08 %ID/g | tissue uptake at 4 h ([3]; muscle, read-out: Muscle uptake, blocked): 0.5 %ID/g | tissue uptake at 4 h ([3]; pancreas, read-out: Pancreas uptake, blocked): 0.76 %ID/g | tissue uptake at 4 h ([3]; skin, read-out: Skin uptake, blocked): 1.26 %ID/g | tissue uptake at 4 h ([3]; small intestines, read-out: Sm. Intestines uptake, blocked): 1.18 %ID/g | tissue uptake at 4 h ([3]; stomach, read-out: Stomach uptake, blocked): 1.2 %ID/g
